# Reference: paper PMC9503459, “Antifungal Activity, Structural Stability, and Immunomodulatory Effects on Human Immune Cells of Defensin from the Lentil Lens culinaris” (Membranes, 2022)
# No end group written: not given here.
# Assays:
# [1] = system: monocyte-derived mature dendritic cells (moDCs); test: Cytokine response by multiplex xMAP, moDCs; format: cell-based, human; settings: 2 µM, 24 h
# Protocol: Colorectal adenocarcinoma Caco-2 cell line (ATCC HTB-37) was cultured in complete DMEM/F12 (1:1) medium containing 10% fetal bovine serum (FBS, Gibco) and 1X antibiotic-antimycotic solution (1XAAS, Invitrogen, Waltham, MA, USA). The acute monocytic leukemia THP-1 line (ATCC TIB-202) was cultured in complete RPMI-1640 medium, containing 10% FBS, 1XAAS, and […]. THP-1 cells were differentiated into pro-inflammatory macrophages (Mφ1) with phorbol 12-myristate 13-acetate (Sigma-Aldrich) for 24 h and subsequently polarized with lipopolysaccharide from E. coli (Sigma-Aldrich) and rhIFN-γ (Sigma-Aldrich) for another 48 h according to previously reported protocol. All cells were cultured in a humidified CO2 incubator (5% CO2, 37 °C). Primary peripheral blood mononuclear cells (PBMCs) collected from a healthy donor were purchased from American Type Culture Collection (ATCC PCS-800-011). CD4^+ T-helper and CD8^+ T cytotoxic cells were isolated from PBMCs by magnetic separation with mouse anti-human CD4-PE (clone 13B8.2, Beckman Coulter Diagnostics, Pasadena, CA, USA) and CD8-PE (clone REA734, Miltenyi Biotec, Bergisch Gladbach, Germany), Anti-PE MicroBeads (Miltenyi Biotec), and LS Separation Columns (Miltenyi Biotec). Isolated CD4^+ and CD8^+ cells were expanded separately with Dynabeads™ Human T-Expander CD3/CD28 (Gibco, Waltham, MA, USA) in RPMI-1640 supplemented with 10% FBS, 1XAAS and 100 U/mL rh-IL-2 (Gibco). Regulatory CD4^+ FoxP3^+ T cells (Tregs) were isolated from PBMCs by magnetic separation with CD4^+CD25^+ Regulatory T Cell Isolation Kit, human (Miltenyi Biotec). Primary CD14^+ blood monocytes were isolated from PBMCs by adherence according to standard technique. Monocyte-derived mature dendritic cells (moDCs) were obtained from CD14^+ blood monocytes according to the previously reported protocol. Briefly, blood monocytes were incubated in complete RPMI-1640 medium, containing 10% FBS, 1XAAS, 800 U/mL rhGM-CSF (Sci-Store, Russia, Moscow) and 500 U/mL rhIL-4 (Sci-Store) for 3 days. Fresh complete RPMI-1640 medium with rhGM-CSF and rhIL-4 was added to the culture on day 3. On day 5, fresh complete RPMI-1640 containing 100 U/mL rhTNF-α (Sigma) as well as 800 U/mL rhGM-CSF and 500 U/mL rhIL-4 was added and the culture was incubated for another 4 days until full maturation.
# Caco-2 cells were seeded into the wells of a 48-well plate, coated with 0.1% bovine collagen (Sigma-Aldrich) for 24 h, 3 weeks before the experiment with complete DMEM/F12 (1:1) medium renewal every 2–3 days. Monocytes, moDCs, CD4^+ T-helper and CD8^+ T cytotoxic cells, Mφ1, and Regulatory CD4^+ FoxP3^+ T cells were seeded into the wells of 48-well plates in the complete RPMI-1640 medium supplemented with 10% Human AB serum (HABS, Capricorn Scientific, Ebsdorfergrund, Germany) and 1XAAS 24 h prior to the experiment; medium in Caco-2-containing wells was also replaced with the same medium. After 24 h, half of the medium in each well was replaced by fresh complete RPMI-1640 medium with 10% HABS, supplemented with 4 µM of Lc-def for the sample wells or fresh medium alone for the control wells. Cell cultures were kept in CO2-incubator (5% CO2, 37 °C) for another 24 h. Culture supernatants were collected 24 h later and stored at −70 °C degrees less than one month prior to the analytes assessment. […]
# [2] = system: proteolytic enzymes of Candida albicans; test: Influence of defensins on degradation of proteins by C. albicans lysate; format: biochemical; settings: SDS-PAGE
# Protocol: For study of Lc-def sensitivity to the clinical isolate of C. albicans, lysates of yeast cells in different concentration and pH were used basically as previously described for rhesus macaque θ-defensin 1 [22]. Cells were inoculated onto modified YPD medium and grown at 37 ℃ for 48 h before reaching the stationary phase of growth. Cells were harvested by centrifugation, washed two times in sterile phosphate buffered saline (PBS), pH 7.2, or sterile 40 mM sodium acetate, pH 4.0, and resuspended in the corresponding buffer to final concentrations of 1 × 10^9 cells/mL or 1 × 10^3 cells/mL. Two freeze-thaw cycles in liquid nitrogen were used for cell disruption, and supernatants were collected following centrifugation. Supernatants (12.5 μL) were mixed with water solutions (37.5 μL) of Lc-def, α-casein, Psd1, or LL-37 in concentration of 0.67 mg/mL and incubated at 37 ℃ for 72 or 24 h in the case of high or low cell concentration, respectively. To study the possible influence of Lc-def and Psd1 on the degradation process, supernatants (12.5 μL) were mixed with both α-casein or LL-37 in concentration of 1 mg/mL (25 μL) and Lc-def or Psd1 in concentration of 2 mg/mL (12.5 μL). As negative controls, α-casein and peptides were mixed with buffers as well as supernatants were mixed with water without the proteins. The samples were mixed with sample buffer without β-mercaptoethanol (BME), heated at 100 ℃ for 2 min, and analyzed by sodium dodecyl sulfate polyacrylamide gel electrophoresis (SDS-PAGE). Some independent experiments were performed in each case.
# [3] = C. albicans lysate 10^3 cells/mL, pH 7.2, up to 24 h
substance,measurement,setting,value
"Lc-def: defensin from lentil Lens culinaris seeds (UniProt:B3F051), recombinant, overexpressed in Escherichia coli (KTCENLSDSFKGPCIPDGNCNKHCKEKEHLLSGRCRDDFRCWCTRNC; disulfide (positions not given here); ends not checked; also: disulfide bonds present, pairing not given here; UniProt B3F051 28-74, looked up)",EGF,[1],2.16 pg/mL
same,Eotaxin,[1],<3.23↓ pg/ml
same,FGF-2,[1],34.19 pg/mL
same,FLT-3L,[1],0.84 pg/mL
same,Fractalkine,[1],<23.19↓ pg/ml
same,G-CSF,[1],4.71 pg/mL
same,GM-CSF,[1],10.34 pg/mL
same,GROa,[1],<0.67↓ pg/ml
same,IFNa2,[1],7.77 pg/mL
same,IFNg,[1],3.79 pg/mL
same,IL-1RA,[1],37.33 pg/mL
same,IL-1a,[1],20.45 pg/mL
same,IL-1b,[1],<18.72↓ pg/ml
same,IL-2,[1],0.98 pg/mL
same,IL-3,[1],<0.48↓ pg/ml
same,IL-4,[1],<0.31↓ pg/ml
same,IL-5,[1],2.41 pg/mL
same,IL-6,[1],1.12 pg/mL
same,IL-7,[1],<0.33↓ pg/ml
same,IL-8,[1],162.8 pg/mL
same,IL-9,[1],4.1 pg/mL
same,IL-10,[1],14.42 pg/mL
same,IL-12 (p40),[1],19.56 pg/mL
same,IL-12 (p70),[1],<1.48↓ pg/ml
same,IL-13,[1],11.42 pg/mL
same,IL-15,[1],15.16 pg/mL
same,IL-17A,[1],<1.55↓ pg/ml
same,IL-17E/IL-25,[1],<20.59↓ pg/ml
same,IL-17F,[1],<16.96↓ pg/ml
same,IL-18,[1],2.04 pg/mL
same,IL-22,[1],9.4 pg/mL
same,IL-27,[1],51.46 pg/mL
same,IP-10,[1],1871 pg/mL
same,M-GSF,[1],78 pg/mL
same,MCP-1,[1],782.17 pg/mL
same,MCP-3,[1],29.76 pg/mL
same,MDC,[1],1903 pg/mL
same,MIG,[1],33510 pg/mL
same,MIP-1a,[1],119.77 pg/mL
same,MIP-1b,[1],243.76 pg/mL
same,PDGF-AA,[1],51.36 pg/mL
same,PDGF-AB/BB,[1],107.03 pg/mL
same,RANTES,[1],15.66 pg/mL
same,TGF-a,[1],75.94 pg/mL
same,TNFa,[1],21.61 pg/mL
same,TNFb,[1],<0.73↓ pg/ml
same,VEGFa,[1],<1.27↓ pg/ml
same,changes in cytokine profiles,[1],did not induce significant changes
same,sCD40L,[1],84.33 pg/mL
same,influence on LL-37 degradation,[2]; [3],did not decrease LL-37 degradation
same,influence on the rate of α-casein degradation,[2]; [3],decreased the rate of α-casein degradation
same,influence on degradation of the major protein of C. albicans,[2]; C. albicans lysate 10^9 cells/mL,decrease in degradation
